The experiment deals with HIV-1 (IIIB). Kind of experiment: inhibition of HIV-1(IIIB) (WT) induced syncytium formation in CEM cells. Type of experiment: cell-based. To be noted: Table 2, day 4 post infection, replicate values, read-out: EC50, Activity Against HIV-1 (IIIB). From the text:
CEM cells were obtained from the American Tissue Cell Culture Collection (Rockville, Md.) . HIV-1 (IIIB) was originally obtained from the culture supernatant of persistently HIV-1-infected H9 cells and was provided by R. C. Gallo and M. Popovic (National Cancer Institute, National Institutes of Health, Bethesda, Md.).
CEM cells were suspended at ≈300,000 cells per ml of culture medium and infected with approximately 100 CCID50 (CCID50 being the 50% cell culture infective dose) of HIV-1(IIIB) (designated as "WT" in Table 3) or one of the HIV-1 RT mutant strains described above. Then 100 μl of the infected cell suspensions was added to 200 μl microtiter plate wells containing 100 μl of appropriate serial (5-fold) dilutions of the test compounds. The inhibitiory effect of the test compounds on HIV-1 induced syncytium formation in CEM cells was examined microscopically on day 4 post infection. The 50% effective concentration (EC50) was defined as the test compound concentration that inhibits syncytium formation in the HIV-1-infected cell cultures by 50%.

[1] abbreviates: Human immunodeficiency virus 1, IIIB, CCRF-CEM, 96 h.

Where “and” joins values, the source holds several entries; their conditions need not be identical. Identical values can stand only once. Like-named read-outs stand apart in the source and are kept apart here.

With `COC(=O)c1sccc1OCc1cc(NC(=S)c2ccoc2C)ccc1Cl` [Compound 74], the EC50 is 270 nM and 131 nM and 147 nM.
For the compound `Cc1occc1C(=S)Nc1ccc(Cl)c(CS(=O)(=O)c2ccccc2Cl)c1` [Compound 77], the EC50 is 251 nM and 299 nM and 1110 nM.
On the same count and under the same terms, for `CCCOc1ccccc1OCc1cc(NC(=S)c2ccoc2C)ccc1Cl` [Compound 55] the value was 10000 nM and 9000 nM and 3730 nM and 4260 nM.
As to `Cc1occc1C(=O)Nc1ccc(Cl)c(COc2c(F)cccc2F)c1` [Compound 20], the EC50 was determined as 799 nM. The EC50 under setting [1] was determined as 496 nM.
Regarding `Cc1occc1C(=S)Nc1ccc(Cl)c(CSc2ncccn2)c1` [Compound 78], the EC50 was 302 nM and 696 nM and 375 nM.
With `COc1cccc(F)c1OCc1cc(NC(=O)c2ccoc2C)ccc1Br` [Compound 63], the EC50 was 7.55 nM. Under setting [1], the EC50 was found to be 7.45 nM.
For `Cc1occc1C(=S)Nc1ccc(Cl)c(CSc2ccccn2)c1` [Compound 80], in that order: 150 nM and 218 nM.
Regarding `Cc1occc1C(=O)Nc1ccc(Cl)c(COc2ccccc2Br)c1` [Compound 35], the EC50 was 2290 nM and 3140 nM and 1230 nM.
Consider `CCOc1ccccc1OCc1cc(NC(=S)c2ccoc2C)ccc1Cl` [Compound 36], for which the EC50 was 377 nM and 124 nM and 788 nM.
Still for that read-out and setting: for `Cc1occc1C(=O)Nc1ccc(Cl)c(OCc2ccccc2F)c1` [Compound 69] the value was 359 nM and 317 nM and 244 nM; for `Cc1occc1C(=S)Nc1ccc(Cl)c(COc2c(F)c(F)cc(F)c2F)c1` [Compound 60], 10.6 nM and 4.62 nM.
Same read-out and setting: for `Cc1occc1C(=O)Nc1ccc(Br)c(COc2ccccc2C(F)(F)F)c1` [Compound 62] the value was 195 nM and 817 nM and 552 nM and 793 nM and 554 nM.
The same measure, in the same setting: for `CC(=O)Oc1ccccc1OCc1cc(NC(=S)c2ccoc2C)ccc1Cl` [Compound 33] the value was 1390 nM and 2830 nM and 2670 nM; for `CC(=O)c1ccccc1OCc1cc(NC(=S)c2ccoc2C)ccc1Cl` [Compound 54], 6670 nM and 15300 nM; for `Cc1occc1C(=S)Nc1ccc(Cl)c(COc2ccccc2-c2ccccc2)c1` [Compound 48], 3110 nM and 2750 nM and 5410 nM.
For `COC(=O)c1sccc1OCc1cc(NC(=O)c2ccoc2C)ccc1Cl` [Compound 73], the concentration for a half-maximal effect (EC50) is 131000 nM and 21200 nM.
In the case of `Cc1occc1C(=O)Nc1ccc(Br)c(COc2c(F)ccc(F)c2F)c1` [Compound 61], the concentration for a half-maximal effect (EC50) under setting [1] is 2.05 nM.
As for `COc1cccc(F)c1OCc1cc(NC(=O)c2ccoc2C)ccc1Cl` [Compound 31], the EC50 is 77.8 nM and 124 nM and 213 nM.
Consider `Cc1occc1C(=S)Nc1ccc(Cl)c(OCc2sccc2Br)c1` [Compound 76], for which the half-maximal effective concentration (EC50) amounted to 95.2 nM. In addition, the EC50 under setting [1] came out at 86.1 nM.
In the case of `Cc1occc1C(=O)Nc1ccc(Cl)c(OCc2sccc2Br)c1` [Compound 75], the EC50 was 588 nM and 1500 nM and 2600 nM.
Same read-out and setting: for `Cc1occc1C(=O)Nc1ccc(Cl)c(COc2ccccc2N)c1` [Compound 52] the value was 13700 nM and 16200 nM; for `Cc1occc1C(=O)Nc1ccc(Cl)c(COc2cccnc2)c1` [Compound 81], 5500 nM and 3690 nM.
As for `Cc1occc1C(=S)Nc1ccc(Cl)c(CSc2ccccc2F)c1` [Compound 71], the EC50 was 342 nM and 128 nM and 396 nM.
Regarding `CC(=NN(C)C)c1ccccc1OCc1cc(NC(=O)c2ccoc2C)ccc1Cl` [Compound 56], the EC50 is 2910 nM and 3580 nM. Further, the EC50 under setting [1] came out at 2230 nM.
For `Cc1occc1C(=O)Nc1ccc(Cl)c(COc2ccccc2C(F)(F)F)c1` [Compound 41], the EC50 was 761 nM and 1110 nM.
The same measure, in the same setting: for `Cc1occc1C(=O)Nc1ccc(Cl)c(CSc2ccccn2)c1` [Compound 79] the value was 2830 nM and 2990 nM and 3300 nM and 1650 nM and 614 nM; for `COC(=O)c1ccccc1OCc1cc(NC(=S)c2ccoc2C)ccc1Cl` [Compound 51], 1000 nM and 226 nM and 915 nM and 568 nM.
The same measure, in the same setting: for `COc1ccccc1OCc1cc(NC(=O)c2ccoc2C)ccc1Cl` [Compound 12] the value was 488 nM and 379 nM and 899 nM.
Take `Cc1occc1C(=S)Nc1ccc(Cl)c(COc2cccnc2)c1` [Compound 85]: the EC50 is 211 nM. In addition, under setting [1], the EC50 was found to be 151 nM.
As for `Cc1occc1C(=O)Nc1ccc(Cl)c(COc2c(F)ccc(F)c2F)c1` [Compound 39], the EC50 was 102 nM and 50.7 nM and 113 nM.
As for `Cc1occc1C(=S)Nc1ccc(Cl)c(OCc2ccccc2F)c1` [Compound 70], the EC50 was determined as 9.67 nM. For the same compound, the EC50 under setting [1] came to 12.2 nM.
As to `Cc1occc1C(=S)Nc1ccc(Br)c(COc2ccccc2C(F)(F)F)c1` [Compound 65], the EC50 turned out to be 0.281 nM. Also, the EC50 under setting [1] is 0.29 nM.
As to `COc1cccc(OC)c1OCc1cc(NC(=S)c2ccoc2C)ccc1Cl` [Compound 28], the EC50 was 6710 nM and 7560 nM and 19600 nM and 10100 nM and 11000 nM.
As for `Cc1occc1C(=O)Nc1ccc(Cl)c(COc2ccccc2C#N)c1` [Compound 29], the 50% effective concentration (EC50) is 3480 nM and 3400 nM and 3100 nM and 3760 nM. For the same compound, the EC50 under setting [1] is 3390 nM.
For the compound `Cc1occc1C(=O)Nc1ccc(Cl)c(COc2ccccc2)c1` [Compound 1], the EC50 is 2380 nM and 1550 nM and 4810 nM.
On the same count and under the same terms, for `Cc1occc1C(=O)Nc1ccc(Cl)c(COc2ccccc2F)c1` [Compound 14] the value was 771 nM and 395 nM and 255 nM.
For the compound `Cc1occc1C(=O)Nc1ccc(Cl)c(COc2ccc(F)cc2)c1` [Compound 10], the EC50 came out at 4260 nM. Besides, the EC50 under setting [1] came to 4150 nM.
Regarding `Cc1occc1COc1cc(NC(=O)c2ccoc2C)ccc1Cl` [Compound 82], the EC50 was 1460 nM and 3150 nM and 2430 nM.
`Cc1occc1C(=S)Nc1ccc(Cl)c(COc2c(F)c(F)c(F)c(F)c2F)c1` [Compound 59]: the EC50 was 117 nM. The EC50 under setting [1] was 199 nM.
As for `Cc1occc1C(=O)Nc1ccc(Cl)c(CSc2ccccc2F)c1` [Compound 72], the EC50 is 14900 nM and 12100 nM.
With `Cc1occc1C(=O)Nc1ccc(Cl)c(COc2cccc([N+](=O)[O-])c2)c1` [Compound 26], the EC50 was 4140 nM and 3660 nM. Also, under setting [1], the EC50 was determined as 4610 nM.
Take `Cc1occc1C(=S)Nc1ccc(Cl)c(COc2ccccc2C(C)(C)C)c1` [Compound 49]: the EC50 is 384 nM and 599 nM and 1130 nM.
As to `Cc1occc1COc1cc(NC(=S)c2ccoc2C)ccc1Cl` [Compound 84], the 50% effective concentration (EC50) is 66.1 nM and 255 nM.
On the same count and under the same terms, under `CCc1ccccc1OCc1cc(NC(=O)c2ccoc2C)ccc1Cl` [Compound 38] stands 2880 nM and 1450 nM.
As for `Cc1occc1C(=O)Nc1ccc(Cl)c(COc2ccc(F)cc2Cl)c1` [Compound 42], the EC50 is 4660 nM and 18200 nM.
Same read-out and setting: under `CCON=Cc1ccccc1OCc1cc(NC(=S)c2ccoc2C)ccc1Cl` [Compound 50] stands 1070 nM; under `Cc1occc1C(=S)Nc1ccc(Cl)c(COc2ccccc2C=NN(C)C)c1` [Compound 57], 214 nM and 76.6 nM and 79.2 nM; under `Cc1ccccc1OCc1cc(NC(=O)c2ccoc2C)ccc1Cl` [Compound 9], 13500 nM and 35000 nM.
`Cc1occc1C(=S)Nc1ccc(Cl)c(CSc2ccncc2)c1` [Compound 83]: the EC50 is 13300 nM and 12100 nM. In addition, the EC50 under setting [1] came to 16500 nM.
Turning to `Cc1occc1C(=S)Nc1ccc(Cl)c(COc2ccccc2)c1` [Compound 2], the EC50 was 228 nM and 161 nM and 98.6 nM and 67.6 nM.
Still for that read-out and setting: for `Cc1occc1C(=O)Nc1ccc(Cl)c(COc2ccccc2[N+](=O)[O-])c1` [Compound 13] the value was 301 nM and 208 nM and 358 nM.
`Cc1occc1C(=O)Nc1ccc(Cl)c(COc2c(F)c(F)cc(F)c2F)c1` [Compound 58]: the EC50 came to 281 nM. In addition, under setting [1], the EC50 worked out at 475 nM.

For orientation: EC50 means the midpoint of the concentration-response curve.

For the origin of these results see patent publication US6143780A, “N-arylmethylthioanilide compounds useful for the inhibition of the replication of HIV” (Uniroyal Chemical Company, Inc., priority 1999, dated 2000).
